Assay results: patent publication US4582821A, “Inhibition of cyclic nucleotide independent protein kinases” (E. I. Du Pont de Nemours and Company, priority 1983, dated 1986)
Peptide text beside a SMILES is read from it. * marks the point of attachment. Cbz = O=C(OCc1ccccc1)*; CH2Cl = ClC*

Key:
lymphoma cell line YAC-1 = assay: Tumor cell line growth inhibition, YAC-1; format: cell-based
Procedure: (§1) In this series of experiments, the tumor cell growth inhibitory capacity of various peptide halomethyl ketones was tested against lymphoma cell lines YAC-1 and MOLT-4, and against an erythroleukemia cell line, K-562. The lymphoma cell line YAC-1 is described by Kiessling, et al., Eur. J. Immunol. 5:112 (1975), and MOLT-4 is described by Minowada, et al., J. Natl. Cancer Inst. 49:891 (1972) and Nilsson, et al., Int. J. Cancer 15:321 (1975). The erythroleukemia cell line K-562 is described by Lozzio, et al., Leuk. Res. 3:363 (1979). In these experiments, cells were grown on standard media as 10 mL suspension cultures. Initial cell density was 10^5 cells/mL. At day 0, test compounds were introduced in ethanol; control cultures received an equal volume of ethanol. Cells were counted at the times indicated.

[1] = test system: erythroleukemia cell line K-562; assay: Tumor cell line growth inhibition, K-562; format: cell-based
Procedure: as §1

A-431 cell EGF receptor = biological target: T1, A-431 cell EGF receptor (Homo sapiens, UniProt P00533); assay: Protein phosphorylation of A-431 cell membrane EGF receptors (intact membranes, EGF present); format: biochemical; details: 600 nmoles/mg protein, intact A-431 membranes
T1 construct: intact A-431 cell membranes were employed, rather than solubilized extracts; endogenous in cells; host or cells: A-431 human epidermoid carcinoma cells (plasma membranes)
T1 sequence (P00533 25-1210): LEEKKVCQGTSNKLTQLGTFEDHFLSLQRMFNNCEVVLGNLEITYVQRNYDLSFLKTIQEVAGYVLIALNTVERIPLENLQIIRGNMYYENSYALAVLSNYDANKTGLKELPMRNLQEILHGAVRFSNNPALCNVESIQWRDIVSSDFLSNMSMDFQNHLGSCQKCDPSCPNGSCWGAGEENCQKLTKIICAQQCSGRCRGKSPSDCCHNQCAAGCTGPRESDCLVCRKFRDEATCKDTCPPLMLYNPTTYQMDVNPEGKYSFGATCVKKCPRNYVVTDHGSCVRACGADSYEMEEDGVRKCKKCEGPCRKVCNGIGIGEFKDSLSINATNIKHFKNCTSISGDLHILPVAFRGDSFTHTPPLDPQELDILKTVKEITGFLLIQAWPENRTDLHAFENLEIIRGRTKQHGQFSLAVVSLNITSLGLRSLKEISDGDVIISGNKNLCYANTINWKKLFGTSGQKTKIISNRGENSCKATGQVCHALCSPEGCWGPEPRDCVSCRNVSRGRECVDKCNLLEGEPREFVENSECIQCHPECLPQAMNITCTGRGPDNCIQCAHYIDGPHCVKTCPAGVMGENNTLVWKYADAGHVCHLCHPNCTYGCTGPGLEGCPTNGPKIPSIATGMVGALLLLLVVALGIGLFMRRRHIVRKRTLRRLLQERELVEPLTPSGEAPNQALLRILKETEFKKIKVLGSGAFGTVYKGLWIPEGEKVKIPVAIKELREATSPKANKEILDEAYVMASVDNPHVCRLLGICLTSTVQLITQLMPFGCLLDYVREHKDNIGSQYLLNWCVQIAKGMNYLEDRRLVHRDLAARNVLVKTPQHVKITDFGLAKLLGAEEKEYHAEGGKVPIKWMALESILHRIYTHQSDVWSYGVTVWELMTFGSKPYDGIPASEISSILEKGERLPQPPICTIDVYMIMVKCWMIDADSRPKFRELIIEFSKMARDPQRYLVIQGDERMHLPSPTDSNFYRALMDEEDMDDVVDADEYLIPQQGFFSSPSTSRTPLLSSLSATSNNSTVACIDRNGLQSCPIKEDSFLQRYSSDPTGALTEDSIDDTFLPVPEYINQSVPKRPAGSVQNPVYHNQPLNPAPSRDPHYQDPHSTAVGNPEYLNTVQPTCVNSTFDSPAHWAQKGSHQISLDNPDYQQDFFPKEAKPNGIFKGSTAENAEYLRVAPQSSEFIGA
Procedure: (§2) Protein phosphorylation assays were conducted substantially as described by Carpenter et al., J. Biol. Chem. 254:4884 (1979). Each assay mixture contained, in a final volume of 70 μL: 20 mM Hepes, pH 7.4, 0.01% bovine serum albumin (BSA), 15-150 μg protein in Triton extract, 100 ng EGF, 1 mM MnCl2 and 10-20 μM [γ-^32 P] ATP (2-4 μCi). Peptide halomethyl ketones were added as solutions in ethanol; an equivalent volume of ethanol was added to controls. Assay mixtures were incubated at about 23° for ten minutes, with or without added EGF. Mixtures were then held at 0° for ten minutes before initiation of phosphorylation by addition of 15 μM γ-^32 P) ATP (2 μCi). Reactions were terminated after 3 minutes at 0° by applying an aliquot of the assay mixture to a Whatman 3MM filter paper (2×2 cm), which was then suspended in ice-cold 10% trichloroacetic acid containing 10 mM pyrophosphate. This suspension was gently shaken for a period of 1 hour, during which the trichloroacetic acid/pyrophosphate mixture was changed three times. Finally, the filter papers were dried and radioactivity measured by scintillation counting.
Assays were conducted substantially as described above, except intact A-431 cell membranes were employed, rather than solubilized extracts, and assay mixtures contained 1 mM ouabain. In these Examples, reactions were permitted to proceed for 6 minutes. This technique is substantially similar to that disclosed by Navarro et al., Biochemistry, 21:6138 (1982).

[2] = test system: lymphoma cell line MOLT-4; assay: Tumor cell line growth inhibition, MOLT-4; format: cell-based
Procedure: as §1

[3] = test system: A-431 plasma membrane extracts (EGF-mediated protein phosphorylation); assay: Protein phosphorylation in solubilized A-431 plasma membrane extracts, with or without EGF; format: biochemical, human
Procedure: The capacity of certain peptide halomethyl ketones to inhibit protein phosphorylation is illustrated by Examples 1-8, below, in which solubilized plasma membranes prepared from A-431 human epidermoid carcinoma cells were incubated with [γ-^32 P] ATP in the presence of EGF.
A-431 human epidermoid carcinoma cells were grown in Dulbecco's modified Eagle's medium containing 5% fetal calf serum. Plasma membranes were isolated by a method substantially similar to that described by Thom et al., Biochem J. 168:187 (1977), and kept at -70°. Solubilization of plasma membranes was performed substantially as described by Cohen et al., J. Biol. Chem. 255:4834 (1980). In this procedure, 7.5 mg/mL protein was solubilized with 5% Triton X-100 (octylphenol), 10% glycerol, and 20 mM Hepes buffer (N-2-hydroxyethylpiperazine-N^1 -2-ethanesulfonic acid), pH 7.4. This mixture was incubated for 20 minutes at about 23°, followed by centrifugation at 100,000 xg for 60 minutes.
as §2

p130^fps = biological target: T2, p130^fps (UniProt P00530+P03323); assay: Casein phosphorylation by p130fps immunoprecipitates; format: biochemical, Fujinami sarcoma virus (FSV); details: casein-phosphorylating activity of p130fps; concentration not given
T2 construct: anti-gag serum and Staphylococcus protein A suspension (for FSV-transformed cells); viral gag-derived N-terminal portion (natural gag-fps fusion); expressed in transfected cells; immune complex with anti-gag serum and Staphylococcus protein A
Procedure: In a related experiment, the capacity of Boc-LeuCH2 Br to inhibit phosphorylation of casein by p130^fps was determined. These tests were conducted substantially as described above, except 1 mg/mL casein was added to assay mixtures as a substrate, and reactions were terminated by addition of 2.5 mM unlabeled ATP and immediate cooling to 0°. Phosphorylated casein was separated from immunoprecipitate suspensions by centrifugation at 3,000 xg for 3 minutes. The resulting pellets were resuspended in 70 μL of 10 mM Hepes, pH 7.5, and 20 μL aliquots were pipetted onto filter paper squares as previously described. […]

CC(C)C[C@H](NC(=O)[C@H](C)NC(=O)[C@H](CO)NC(=O)[C@H](Cc1ccccc1)NC(=O)OCc1ccccc1)C(=O)CCl [Z--Phe-Ser-Ala-LeuCH2 Cl, Z-Phe-Ser-Ala-LeuCH2 Cl] (Cbz-FSAL-CH2Cl) was tested, and the “% Growth Relative to Control Cultures” value (lymphoma cell line YAC-1; 0.4 μg/mL, day 1) was 58%, the “% Growth Relative to Control Cultures” value (lymphoma cell line YAC-1; 0.4 μg/mL, day 2) was 49% and the “% Growth Relative to Control Cultures” value (lymphoma cell line YAC-1; 2.0 μg/mL, day 1) was 53%. The “% Growth Relative to Control Cultures” value (lymphoma cell line YAC-1; 2.0 μg/mL, day 2) was 53%, the “% Growth Relative to Control Cultures” value (lymphoma cell line YAC-1; 2.0 μg/mL, day 7) was 76% and the “% Growth Relative to Control Cultures” value (lymphoma cell line YAC-1; 10. μg/mL, day 1) was 63%. The “% Growth Relative to Control Cultures” value (lymphoma cell line YAC-1; 10. μg/mL, day 2) was 21%, the “% Growth Relative to Control Cultures” value (lymphoma cell line YAC-1; 10. μg/mL, day 3) was 16% and the “% Growth Relative to Control Cultures” value (lymphoma cell line YAC-1; 10. μg/mL, day 4) was 16%. For the same compound, the “% Growth Relative to Control Cultures” value (lymphoma cell line YAC-1; 10. μg/mL, day 7) was 17%, the “% Growth Relative to Control Cultures” value ([1]; 0.4 μg/mL, day 1) was 82% and the “% Growth Relative to Control Cultures” value ([1]; 0.4 μg/mL, day 2) was 66%. The “% Growth Relative to Control Cultures” value ([1]; 2.0 μg/mL, day 2) was 72%, the “% Growth Relative to Control Cultures” value ([1]; 10. μg/mL, day 1) was 44% and the “% Growth Relative to Control Cultures” value ([1]; 10. μg/mL, day 2) was 4%. For the same compound, the “% Growth Relative to Control Cultures” value ([1]; 10. μg/mL, day 3) was 2%, the “% Growth Relative to Control Cultures” value ([1]; 10. μg/mL, day 4) was 4% and the “% Growth Relative to Control Cultures” value ([1]; 10. μg/mL, day 7) was 7%. The “% inhibition” value (A-431 cell EGF receptor) was 44%, the “% Growth Relative to Control Cultures” value ([2]; 0.4 μg/mL, day 2) was 80% and the “% Growth Relative to Control Cultures” value ([2]; 2.0 μg/mL, day 2) was 85%. For the same compound, the “% Growth Relative to Control Cultures” value ([2]; 10. μg/mL, day 1) was 64%, the “% Growth Relative to Control Cultures” value ([2]; 10. μg/mL, day 2) was 16% and the “% Growth Relative to Control Cultures” value ([2]; 10. μg/mL, day 3) was 4%. The “% Growth Relative to Control Cultures” value ([2]; 10. μg/mL, day 4) was 2% and the “% Growth Relative to Control Cultures” value ([2]; 10. μg/mL, day 7) was 11%.

C[C@H](NC(=O)OCc1ccccc1)C(=O)CCl [Z-AlaCH2 Cl] was tested, and the “% inhibition, EGF Added” value ([3]; 400 nmol/mg protein) was 71%, the “EGF Added (pmol 32P incorporated/min/mg protein)” value ([3]; 400 nmol/mg protein, control 20.2) was 5.9 pmol^32 P incorporated/min/mg and the “% inhibition, No EGF Added” value ([3]; no EGF, 400 nmol/mg protein) was 44%. The “No EGF Added (pmol 32P incorporated/min/mg protein)” value ([3]; no EGF, 400 nmol/mg protein, control 7.3) was 4.1 pmol^32 P incorporated/min/mg.

For CC(C)C[C@H](NC(=O)[C@@H]1CCCN1C(=O)CNC(=O)[C@H](Cc1ccccc1)NC(=O)OCc1ccccc1)C(=O)CCl [Z--Phe-Gly-Pro-LeuCH2 Cl] (Cbz-FGPL-CH2Cl), the “Percent Inhibition” value (p130^fps) was 7%.

With CC(C)CC(NC(=O)C(C)NC(=O)C(CCCCN)NC(=O)C(Cc1ccccc1)NC(=O)OCc1ccccc1)C(=O)CCl (stereo not drawn) [Z--Phe-Lys-Ala-LeuCH2 Cl, Z-Phe-Lys-Ala-LeuCH2 Cl] (Cbz-FKAL-CH2Cl; configuration not given here) the “Percent Inhibition” value (p130^fps) was 11%.

With CC(C)C[C@H](NC(=O)[C@H](C)NC(=O)CNC(=O)[C@H](Cc1ccccc1)NC(=O)OCc1ccccc1)C(=O)CCl [Z--Phe-Gly-Ala-LeuCH2 Cl, Z-Phe-Gly-Ala-LeuCH2 Cl] (Cbz-FGAL-CH2Cl) the “Percent Inhibition” value (p130^fps) was 27%.

In the case of C[C@H](NC(=O)CNC(=O)[C@H](Cc1ccccc1)NC(=O)OCc1ccccc1)C(=O)N[C@@H](Cc1ccc(O)cc1)C(=O)CCl [Z--Phe-Gly-Ala-TyrCH2 Cl, Z-Phe-Gly-Ala-TyrCH2 Cl] (Cbz-FGAY-CH2Cl), the “% inhibition” value (A-431 cell EGF receptor) is reported as 67%.

With CC(=O)NC(Cc1ccccc1)C(=O)NC(CCC(=O)O)C(=O)NC(C)C(=O)NC(CC(C)C)C(=O)CCl (stereo not drawn) [Ac-Phe-Glu-Ala-LeuCH2 Cl] (Ac-FEAL-CH2Cl; configuration not given here) the “Percent Inhibition” value (p130^fps) was -1%.

For CC(C)[C@H](NC(=O)OC(C)(C)C)C(=O)CCl [Boc-ValCH2 Cl], the “% inhibition, EGF Added” value ([3]; 477 nmol/mg protein) was 25%, the “EGF Added (pmol 32P incorporated/min/mg protein)” value ([3]; 477 nmol/mg protein, control 96.2) was 72.2 pmol^32 P incorporated/min/mg and the “No EGF Added (pmol 32P incorporated/min/mg protein)” value ([3]; no EGF, 477 nmol/mg protein, control 21.6) was 20.3 pmol^32 P incorporated/min/mg.
